Earlier results on one compound are cited in patent US20050074494A1, “Itraconazole immediate release formulation” (priority 2003, published 2005).

With `CCC(C)n1ncn(-c2ccc(N3CCN(c4ccc(OCC5COC(Cn6cncn6)(c6ccc(Cl)cc6Cl)O5)cc4)CC3)cc2)c1=O` (stereo not drawn) [Itraconazole, 4-[4-[4-[4-[[2-(2,4-dichlorophenyl)-2-(1H-1,2,4-triazol-1-ylmethyl)-1,3-dioxolan-4-yl]methoxy]phenyl]-1-piperazinyl]phenyl]-2,4-dihydro-2-(1-methylpropyl)-3H-1,2,4-triazol-3-one], the solubility in alcohols entry (alcohols) is reported as “very slightly soluble”. Where the note is “dichloromethane”, the solubility in dichloromethane result is recorded as “freely soluble”. Where the note is “water”, the solubility in water result was “insoluble”.
